Test results from patent publication EP2735563A1, “Meta substituted 2-[phenoxy-phenyl]-1-[1,2,4]triazol-1-yl-ethanol compounds and their use as fungicides” (BASF SE, priority 2012, dated 2014).

Legend:
Assay type in all cases: cell-based
Settings in all cases: relative growth vs active compound-free control (100%), absorption at 405 nm 7 days after inoculation, 18°C
Pyricularia oryzae = system: Pyricularia oryzae
Septoria tritici = assay: Activity against leaf blotch on wheat caused by Septoria tritici (Septtr), microtiter plate test
Botrytis cinerea = assay: Activity against the grey mold Botrytis cinerea in the microtiterplate test (Botrci)

Row | Structure (SMILES) | Growth (%) at 31 ppm Pyrior (Pyricularia oryzae) [%] | Growth (%) at 31 ppm Septtr (Septoria tritici) [%] | Growth (%) at 31 ppm Botrci (Botrytis cinerea) [%]
1 | COC(C)(Cn1cncn1)c1ccc(Oc2ccc(Cl)cc2)c(C(F)(F)F)c1 (centres unmarked) [Compound I-6] | 0 |  | 
2 | CC(O)(Cn1cncn1)c1ccc(Oc2ccc(Cl)cc2)c(C(F)(F)F)c1 (centres unmarked) [Compound I-5] | 0 | 14 | 
3 | CC(O)(Cn1cncn1)c1ccc(Oc2ccc(Cl)cc2)c(Cl)c1 (centres unmarked) [Compound I-4, 2-[3-chloro-4-(4-chlorophenoxy)phenyl]-1-(1,2,4-triazol-1-yl)propan-2-ol] | 0 |  | 17
4 | COC(C)(Cn1cncn1)c1ccc(Oc2ccc(Cl)cc2)c(Cl)c1 (centres unmarked) [Compound I-3, 1-[2-[3-chloro-4-(4-chlorophenoxy)phenyl]-2-methoxy-propyl]-1,2,4-triazole] | 0 |  | 
5 | OC(Cn1cncn1)c1ccc(Oc2ccc(Cl)cc2)c(Cl)c1 (centres unmarked) [Compound I-2, 1-[3-Chloro-4-(4-chlorophenoxy)phenyl]-2-(1,2,4-triazol-1-yl)ethanol] | 1 |  | 13
